Series [1] has as its system phospho-Akt. The experiment in a line: Western blot of phospho-Akt in Nf2-/- mouse Schwann cells. Conditions: 0.02 μM, 0.5 μM, 24 hours, dose- and time-dependent. The series is classed as cell-based. The source says: (§1) It has been shown that inhibition of HSP90 function in breast cancer cells causes down-regulation of Akt (Basso et al., 2002, J. Biol. Chem. 277(42): 39858-39866). The inventors of the present invention have determined that phospho-Akt levels are elevated in Nf1−/− mouse Schwann cells, NF2 defient human schwannomas, NF2-deficient meningioma xenografts, NF2-deficient mesothelioma xenografts as compared to wild-type mouse Schwann cells and/or normal human peripheral nerves (reference is made to PCT/US2007/70366 application entitled “Treatment of Neurofibromatosis with Inhibitors of a Signal Transduction Pathway,” filed on Jun. 4, 2007, which is herein incorporated by reference in its entirety). To assess the effect of HSP90 inhibitors on phospho-Akt in NF2 deficient cells, Western blots were prepared from Nf2−/− mouse Schwann cells as an example. The cells were treated with 0.02 μM, 0.5 μM NXD30001 for 24 hours. As control the same cells were treated with vehicle DMSO for 24 hours. […] The loss of phospho-Akt was both dose- and time-dependent.

The test system of series [2] is ErbB2. Description: Western blot of ErbB2 in NF2-deficient cells. The series is classed as cell-based, mouse and human. The settings on record: NF2-deficient cells (Nf2-/- mouse Schwann, meningioma, mesothelioma); dose- and time-dependent. The source says:
(§2) It has been shown that inhibition of HSP90 function in breast cancer cells causes down-regulation of Akt (Basso et al., 2002, J. Biol. Chem. 277(42): 39858-39866). The inventors of the present invention have determined that phospho-Akt levels are elevated in Nf1−/− mouse Schwann cells, NF2 defient human schwannomas, NF2-deficient meningioma xenografts, NF2-deficient mesothelioma xenografts as compared to wild-type mouse Schwann cells and/or normal human peripheral nerves (reference is made to PCT/US2007/70366 application entitled “Treatment of Neurofibromatosis with Inhibitors of a Signal Transduction Pathway,” filed on Jun. 4, 2007, which is herein incorporated by reference in its entirety). To assess the effect of HSP90 inhibitors on phospho-Akt in NF2 deficient cells, Western blots were prepared from Nf2−/− mouse Schwann cells as an example. The cells were treated with 0.02 μM, 0.5 μM NXD30001 for 24 hours. […]
(§3) To assess the effect of the compounds of the present invention on ErbB2 and c-Raf in NF2-deficient cells, Western blots were prepared from various NF2-deficient cells, including Nf2−/− mouse Schwann cells, NF2-deficient meningioma cells, and NF2-deficient mesothelioma cells. […] The inventors of the present invention have determined that treatment of NF2-deficient cells with NXD30001 caused a decline of both ErbB2 and c-Raf levels (FIG. 1A). […]
On the technique in general: A western blot detects proteins with antibodies after separation by electrophoresis.

Series [3] concerns c-Raf. Description: Western blot of c-Raf in NF2-deficient cells. It is filed as cell-based, mouse and human. Conditions: NF2-deficient cells (Nf2-/- mouse Schwann, meningioma, mesothelioma); dose- and time-dependent.
Excerpt: as §2, §3

The subject of series [4] is HSP70. The experiment in a line: Western blot of HSP70 in NF2-deficient cells. The series is classed as cell-based, mouse and human. The settings on record: dose-dependent.
Excerpt: as §1
To assess the effect of the compounds of the present invention on HSP70 in NF2-deficient cells, Western blots were prepared from various NF2-deficient cells, including […], NF2-deficient schwannoma cells, NF2-deficient meningioma cells, and NF2-deficient mesothelioma cells. […]

The test system of series [5] is Akt. The experiment in a line: Immunoblot of client protein degradation in ST88-14 MPNST cells. It is filed as cell-based, human. The settings on record: ST88-14 cells, 24 hr treatment, 8-1000 nM; read-out: IC50 of induced degradation of Akt. Here is the method: (§4) Ras-Raf-Mek-Erk1/2 pathway is activated due to the loss of NF1 in these cells. In addition, EGFR is overexpressed in a number of NF1-deficient human and mouse cells. Human malignant peripheral nerve sheath tumor (MPNST) cell ST88-14 was treated with increasing concentration (8-1000 nM) of NXD30001 for 24 hr. Cells were lysed and clarified lysates were subjected SDS-PAGE, followed by immunoblot analysis using indicated antibodies. […] Equal lysate protein loading is shown by actin immunoblot.

In series [6] the test system is Cdk4. The description is as above. It is filed as cell-based, human. Conditions: ST88-14 cells, 24 hr treatment, 8-1000 nM; read-out: IC50 of induced degradation of Cdk4. Here is the method:
as §4

The test system of series [7] is EGFR. The series is described as above. The series is classed as cell-based, human. The settings on record: ST88-14 cells, 24 hr treatment, 8-1000 nM; read-out: IC50 of induced degradation of EGFR. Here is the method:
as §4

For series [8], the system named is c-Raf. Described as above. The settings on record: ST88-14 cells, 24 hr treatment, 8-1000 nM; read-out: IC50 of induced degradation of c-Raf. The series is classed as cell-based, human. Here is the method: as §4
Series [9] concerns NF1- and NF2-deficient human and mouse cells. Description: Cell proliferation assay (ATPlite). It is filed as cell-based. The settings on record: 3 days culture; IC50 values only in FIG. 3. Here is the method:
Inhibitors of HSP90 function is assayed for the ability to decrease the number of NF2 deficient tumor cells in a tumor, i.e., shrink a tumor, or reduce the proliferation of NF2 deficient tumor cells. The ability of inhibitors to decrease the number of NF2 deficient tumor cells in a sample or reduce proliferation of NF2 deficient tumor cells is assessed using a variety of methods known in the art. A small library of compounds of the present invention (total 14 oxime compounds) were assayed for inhibition of proliferation of NF1- and NF2-deficient cells. Cells used are Nf2−/− mouse embryonic stem cell (MESC), NF2-deficient human SF1335 meningioma cells, NF2-deficient HEI193 schwanoma cells, NF2-deficient BAR and RAV mesothelioma cells, NF2-plus BLA mesothelioma cells, and NF1-deficient human malignant peripheral nerve sheath tumor (MPNST) cells. Appropriate number of cells that can reach ˜70% confluence in 3 days (2000-6000 cells/well) were plated in 96-well plates. Various concentrations of each compound were added to the growing media and the cells were then cultured for 3 days. A positive control compound (17-AAG) and a vehicle (DMSO) control were included with each assay. […] Viable cells were measured by detecting luminescence generated from reaction of ATPlite solution and the ATP in the cells.
For orientation: In ATP-based viability assays light output follows the ATP content of the culture.

The test system of series [10] is HSP90. Description: HSP90 affinity in a competition assay with geldanamycin. The series is classed as binding.
The conditions of series [11]: rcm bond, 14-membered ring, Grubbs II (10 mol%), toluene, 2.0 mM, 80.0 °C.
For series [12] the following is noted: toluene.
For series [13] the following is noted: cited from earlier work.

We go through eleven molecules from patent publication US8329683B2 (Nexgenix Pharmaceuticals, LLC, priority 2006, dated 2012).

SMILES strings stand for the structures. Like-named read-outs stand apart in the source and are kept apart here.

Turning to `O=C1OCC/C=C/CC/C=C/C(=N/OCC(=O)N2CCCCC2)Cc2c(Cl)c(O)cc(O)c21` [NXD30001], in series [1], the phospho-Akt levels entry is “decline of phospho-Akt levels”. In series [2], the ErbB2 levels entry was “decline”. Moreover, the c-Raf levels entry in series [3] is “decline”. In addition, the HSP70 protein level result in [4] is given as “upregulation of HSP70”. The IC50 in series [5], in series [6], in series [7] and in series [8] was approximately 100 nM each time. In addition, the “inhibition of cell proliferation” value in [9] was “Inhibit Proliferation”. On to `C[C@@H]1CC2O[C@@H]2CC/C=C/C(=O)Cc2c(Cl)c(O)cc(O)c2C(=O)O1` (stereo partly shown) [pochonin A], for which, in series [10], the 50% inhibitory concentration (IC50) was 90 nM. `CCOCOc1cc2c(c(OCOCC)c1)C(=O)OC(C)CC=CCCC=CC(=O)C2` (stereo not shown) registered a ring closure, isolated yield in series [11] (2 steps) of 40%. `CCOCOc1cc(OCOCC)c2c(c1Cl)CC(=O)C=CCCC=CCC(C)OC2=O` (stereo not shown): the ring closure, isolated yield in series [11] turned out to be 94%. In the case of `C[C@@H]1CC=CCC/C=C/C(=O)Cc2c(Cl)c(O[Si](C)(C)C(C)(C)C)cc(O[Si](C)(C)C(C)(C)C)c2C(=O)O1`, the ring closure, yield of all isomers in [12] (from C=CCC/C=C/C(=O)Cc1c(Cl)c(O[Si](C)(C)C(C)(C)C)cc(O[Si](C)(C)C(C)(C)C)c1C(=O)O[C@H](C)CC=C, rcm bond, Grubbs II, 2.0 mM, 80.0 °C, 12.0 h) was 87%. For the molecule `C[C@@H]1CC=CCC/C=C/C(=O)Cc2c(Cl)c(OCOCC[Si](C)(C)C)cc(OCOCC[Si](C)(C)C)c2C(=O)O1`, the ring closure, yield of all isomers in series [12] (from C=CCC/C=C/C(=O)Cc1c(Cl)c(OCOCC[Si](C)(C)C)cc(OCOCC[Si](C)(C)C)c1C(=O)O[C@H](C)CC=C, rcm bond, Grubbs II, 2.0 mM, 80.0 °C, 12.0 h) was found to be 87%. Regarding `CCOCOc1cc(OCOCC)c2c(c1Cl)CC(=NOCC(=O)N1CCCCC1)C=CCCC=CCCOC2=O`, the ring closure, yield of all isomers in series [12] (from CCOCOc1cc(OCOCC)c(C(=O)O)c(CC(C=CCCC=CCCO)=NOCC(=O)N2CCCCC2)c1Cl, ester bond, PPh3/DIAD, 30.9 mM, 23.0 °C, 5.0 h) was 60%. Regarding `CCOCOc1cc(OCOCC)c2c(c1Cl)CC(=O)C=CCCC=CC[C@@H](C)OC2=O`, the ring closure, yield of all isomers in [12] (from C=CCCC=CC(=O)Cc1c(Cl)c(OCOCC)cc(OCOCC)c1C(=O)O[C@H](C)CC=C, rcm bond, Grubbs II, 2.0 mM, 80.0 °C) is 94%. For the molecule `C[C@@H]1C/C=C/CC/C=C/C(=O)Cc2c(Cl)c(O)cc(O)c2C(=O)O1` [pochonin D], the IC50 in series [10] turned out to be 80 nM. Turning to `CCOCOc1cc2c(c(OCOCC)c1)C(=O)O[C@H](C)CC=CCCC=CC(=O)C2`, the ring closure, yield of all isomers in series [12] (from C=CCCC=CC(=O)Cc1cc(OCOCC)cc(OCOCC)c1C(=O)O[C@H](C)CC=C, rcm bond, Grubbs II, 2.0 mM, 80.0 °C, 2 steps) is 40%. On to `C[C@@H]1C[C@H]2O[C@@H]2/C=C\C=C\C(=O)Cc2c(Cl)c(O)cc(O)c2C(=O)O1` [radicicol, Radicicol, reference compound], for which the “in vivo anti-tumor activity” value in series [13] is recorded as “no in vivo anti-tumor activity”.

As usually defined, the IC50 is the concentration that gives 50% inhibition.
